Measured values reported in patent US20150139961A1, “Reprogramming Blood Cells to Pluripotent and Multipotent Stem Cells” (The Johns Hopkins University, priority 2009, published 2015).

Assays:
CB CD34+ cells = experiment: Reprogramming of cord blood CD34+ cells by EBNA1/OriP plasmids, TRA-1-60+ colonies at day 14; type: cell-based, human; settings: NaB 0.25 mM, with either vector combination
Description: In the first set of 3 experiments, the pEB-C5 and pEB-Tg plasmids were used in comparison with the Thomson/Yu combination #6 containing 3 plasmids. After expansion (˜5-flod) with cytokines for 4 days, CB CD34+ cells were transfected once and then cultured following the standard protocol of deriving human iPSCs. […] Transfected cells were cultured for 2 more days before transferring onto 6 wells coated with MEF feeder cells. At day 3, the ESC culture medium was used in the presence or absence of NaB (0.25 mM) or VPA (0.5 mM). After day 9, the MEF-derived conditioned medium (CM) was used to substitute plain ESC medium. […] At day 14, cultures can be stained live with the TRA-1-60 antibody. TRA-1-60+ colonies with ESC-like morphology were picked after counting all the colonies.
After thawing, CD34+ cells were cultured for 4 to 5 days under a serum-free medium (SFM): containing 50% IMDM with 50% Ham's F12 (Invitrogen), ITS supplement (insulin-transferrin-selenium and 5 mg/ml BSA), synthetic lipids, 50 ug/ml of ascorbic acid and 2 mM glutamine (all from Sigma). […]
The cell culture plates with sizable ESC-like colonies were incubated in 37° C. for 1 hour before medium was changed to fresh ESC medium or CM. TRA-1-60 positive colonies were identified under an inverted fluorescence microscope, and can be picked up within 1 day after staining for further expansion and characterization.

CB MNCs = experiment: Reprogramming of cultured cord blood mononuclear cells by EBNA1/OriP plasmids; type: cell-based, human; settings: added to pEB-C5
Description: After thawing, frozen MNCs from CB and PB) were cultured in the SFM supplemented with the following cytokines and a hormone: SCF (50 ng/ml), IL-3 (10 ng/ml), EPO (2U/ml, R&D Systems), IGF-1 (40 ng/ml) and dexamethasone (1 uM, Sigma). The media were replenished at day 3 and 6. By day 8-9 when an overt sign of cell division was observed, cells were harvested for nucleofection as well for various analyses. Approximately 3.5-fold cells were obtained for CB at day 8 and 1.5-fold for PB MNC at day 9. After optimizing nucleofection of the cultured MNCs to achieve maximal cell survival and gene transfer, the inventor settled down with the same Human CD34 Cell solution [Nucleofector Kit VPA-1003] but with 2×10^6 cultured cells. The transfected MNCs were cultured in the same medium for days and then further reprogrammed on MEF feeder cells as described above with cultured CD34+ cells. […]
TRA-1-60 Live Staining for identifying fully reprogrammed clones: TRA-1-60 antibody (mouse IgM, used as 1:300 of MAB4360, Millipore) and Alexa555-conjugated anti-mouse IgM secondary antibody (1:500, Invitrogen) were diluted in ESC medium and added into reprogramming cell culture plates. […] TRA-1-60 positive colonies were identified under an inverted fluorescence microscope, and can be picked up within 1 day after staining for further expansion and characterization.

In the case of `CCCC(=O)[O-].[Na+]` [NaB, Sodium butyrate], the “effect on number (and percentages) of TRA-1-60+ colonies” value (CB CD34+ cells) is reported as “consistently enhance” and the “stimulatory effect on reprogramming” value (CB MNCs) is reported as “minimal”.
